Test results taken from the supplement of paper PMC10627819.

Columns and labels:
S. aureus DSM 20231 = test: Bliss interaction score (quartile over a dose matrix) (fitness difference); higher = more antagonism (negative = synergy)
In short: (§1)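 Fitness here means normalised growth, inferred for single drugs from the combination data. Growth was OD595 at entry into stationary phase, divided by the plate's robust no-drug mean and capped at 1. The Bliss score is observed minus expected fitness, with the expectation being the product, and its quartiles span technical, biological and donor/recipient replicates.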

S. pneumoniae D39V [1] = test: as above
In short: as §1

B. subtilis 168 = test: as above
In short: as §1

S. aureus Newman = test: as above
In short: as §1

S. pneumoniae D39V [2] = test: fitness (endpoint OD595 vs no drug) (fraction); higher = more growth
In short: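 Fitness expresses the optical density reached at the stationary-phase transition as a fraction of the robust mean of no-drug control wells. It is capped at 1. Measurements were OD595 every 30 min for 14 h at 37 °C after inoculation of 384-well plates at OD595 0.01 (30 µl, or 55 µl for S. pneumoniae), minus the first reading.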
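Wherever Bliss interaction score (quartile over a dose matrix) is given: first quartile when negative (synergy) and third quartile when positive (antagonism).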
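Wherever fitness (endpoint OD595 vs no drug) is given: OD595 on entry to stationary phase over no-drug wells; at most 1.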

CCC[C@@H]1C[C@@H](C(=O)N[C@@H]([C@H]2O[C@H](SC)[C@H](O)[C@@H](O)[C@H]2O)[C@@H](C)O)N(C)C1 [Lincomycin] + C/C(=C\C(=O)OCCCCCCCCC(=O)O)C[C@@H]1OC[C@H](C[C@@H]2O[C@H]2[C@@H](C)[C@H](C)O)[C@@H](O)[C@H]1O [Pseudomonic acid]
Settings | Bliss interaction score
B. subtilis 168 | -0.0308
S. aureus DSM 20231 | 0.0155
S. aureus Newman | 0.031
S. pneumoniae D39V [1] | -0.269

fitness, S. pneumoniae D39V [2]
Settings | first compound 0.2 µg/mL | first compound 0.215 µg/mL | first compound 0.4 µg/mL | first compound 0.43 µg/mL | first compound 0.8 µg/mL | first compound 0.86 µg/mL
partner 0.03 µg/mL | 0.649 | 0.828 | – | 0.633 | 0.121 | 0.177
partner 0.06 µg/mL | – | – | 0.206 | – | 0.0533 | 0.142
partner 0.12 µg/mL | 0.179 | – | 0.156 | – | 0.0889 | 0.12

CC[C@H]1OC(=O)[C@H](C)[C@@H](O[C@H]2C[C@@](C)(OC)[C@@H](O)[C@H](C)O2)[C@H](C)[C@@H](O[C@@H]2O[C@H](C)C[C@H](N(C)C)[C@H]2O)[C@](C)(OC)C[C@@H](C)C(=O)[C@H](C)[C@@H](O)[C@]1(C)O [Clarithromycin] + CN[C@H](CC(C)C)C(=O)N[C@H]1C(=O)N[C@@H](CC(N)=O)C(=O)N[C@H]2C(=O)N[C@H]3C(=O)N[C@H](C(=O)N[C@H](C(=O)O)c4cc(O)cc(O)c4-c4cc3ccc4O)[C@H](O)c3ccc(c(Cl)c3)Oc3cc2cc(c3O[C@@H]2O[C@H](CO)[C@@H](O)[C@H](O)[C@H]2O[C@H]2C[C@](C)(N)[C@H](O)[C@H](C)O2)Oc2ccc(cc2Cl)[C@H]1O [Vancomycin]
Settings | Bliss interaction score
B. subtilis 168 | 0.038
S. aureus DSM 20231 | 0.054
S. aureus Newman | 0.0579
S. pneumoniae D39V [1] | -0.0529

fitness, S. pneumoniae D39V [2], one replicate
Settings | first compound 0.007812 µg/mL | first compound 0.01562 µg/mL | first compound 0.03125 µg/mL
partner 0.125 µg/mL | 0.835 | 0.803 | 0.699
partner 0.25 µg/mL | 0.333 | 0.0993 | 0.126
partner 0.5 µg/mL | 0.0664 | 0.0774 | 0.0781

fitness, S. pneumoniae D39V [2]
Settings | first compound 0.0625 µg/mL | first compound 0.07 µg/mL | first compound 0.125 µg/mL | first compound 0.14 µg/mL | first compound 0.25 µg/mL | first compound 0.28 µg/mL
partner 0.03125 µg/mL | 0.652 | – | 0.381 | – | 0.149 | –
partner 0.0625 µg/mL | 0.577 | – | 0.321 | – | 0.116 | –
partner 0.125 µg/mL | – | 0.101 | 0.281 | 0.0727 | 0.106 | 0.0814
partner 0.25 µg/mL | – | 0.0516 | – | 0.0525 | – | 0.0738
partner 0.5 µg/mL | – | 0.0749 | – | 0.0887 | – | 0.0893

O=C1CN(/N=C/c2ccc([N+](=O)[O-])o2)C(=O)N1 [Nitrofurantoin] + COc1ccc(C[C@H](N)C(=O)N[C@H]2[C@@H](O)[C@H](n3cnc4c(N(C)C)ncnc43)O[C@@H]2CO)cc1 [Puromycin]
Settings | Bliss interaction score
B. subtilis 168 | 0.1
S. aureus DSM 20231 | 0.0289
S. aureus Newman | 0.098
S. pneumoniae D39V [1] | -0.135

fitness, S. pneumoniae D39V [2]
Settings | partner 1 µg/mL | partner 2 µg/mL | partner 4 µg/mL
first compound 1.285 µg/mL | 0.989 | 0.966 | 0.808
first compound 2.57 µg/mL | 0.947 | 0.901 | 0.742

fitness, S. pneumoniae D39V [2], one replicate
Settings | first compound 2 µg/mL | first compound 4 µg/mL | first compound 5.14 µg/mL | first compound 8 µg/mL
partner 1 µg/mL | 0.901 | 0.899 | 0.905 | 0.652
partner 2 µg/mL | 0.821 | 0.915 | 0.88 | 0.711
partner 4 µg/mL | 0.757 | 0.767 | 0.592 | 0.38

C[C@@H](O)[C@H]1C(=O)N2C(C(=O)O)=C(SCCNC=N)C[C@H]12 [Imipenem] + CN1C2=CC=CC=C2N=C3C1=CC=CC3=O [Pyocyanin]
Settings | Bliss interaction score
B. subtilis 168 | 0.0885
S. aureus DSM 20231 | -0.0657
S. aureus Newman | 0.0283
S. pneumoniae D39V [1] | 0.0503

fitness, S. pneumoniae D39V [2], one replicate
Settings | first compound 0.005 µg/mL | first compound 0.01 µg/mL | first compound 0.02 µg/mL
partner 0.325 µg/mL | 0.945 | 0.947 | ≥ 1
partner 0.65 µg/mL | 0.979 | 0.959 | 0.957

fitness, S. pneumoniae D39V [2]
Settings | first compound 0.0065 µg/mL | first compound 0.013 µg/mL | first compound 0.026 µg/mL
partner 0.325 µg/mL | 0.975 | ≥ 1 | 0.983
partner 0.65 µg/mL | 0.936 | 0.929 | 0.892
partner 1.3 µg/mL | 0.591 | 0.698 | 0.657

CC[C@H]1OC(=O)[C@H](C)[C@@H](O[C@H]2C[C@@](C)(OC)[C@@H](O)[C@H](C)O2)[C@H](C)[C@@H](O[C@@H]2O[C@H](C)C[C@H](N(C)C)[C@H]2O)[C@](C)(OC)C[C@@H](C)C(=O)[C@H](C)[C@@H](O)[C@]1(C)O [Clarithromycin] + Cn1nnc(-c2ccc(-c3ccc(N4C[C@H](CO)OC4=O)cc3F)cn2)n1 [Tedizolid]
Settings | Bliss interaction score
B. subtilis 168 | -0.0452
S. aureus DSM 20231 | -0.109
S. aureus Newman | -0.106
S. pneumoniae D39V [1] | 0.0824

fitness, S. pneumoniae D39V [2], one replicate
Settings | first compound 0.007812 µg/mL | first compound 0.01562 µg/mL | first compound 0.03125 µg/mL
partner 0.125 µg/mL | 0.739 | 0.692 | 0.639
partner 0.25 µg/mL | 0.701 | 0.685 | 0.686
partner 0.5 µg/mL | 0.373 | 0.381 | 0.353

fitness, S. pneumoniae D39V [2]
Settings | first compound 0.0625 µg/mL | first compound 0.07 µg/mL | first compound 0.125 µg/mL | first compound 0.14 µg/mL | first compound 0.25 µg/mL | first compound 0.28 µg/mL
partner 0.03125 µg/mL | 0.715 | – | 0.544 | – | 0.317 | –
partner 0.0625 µg/mL | 0.727 | – | 0.571 | – | 0.336 | –
partner 0.125 µg/mL | 0.666 | 0.0645 | 0.511 | 0.053 | 0.275 | 0.0588
partner 0.25 µg/mL | – | 0.0475 | – | 0.0527 | – | 0.0319
partner 0.5 µg/mL | – | 0.0477 | – | 0.0537 | – | 0.0347
